Experimental data reported in US8921122B2, “System and method for quantitative assessment of biological migration behavior” (The General Hospital Corporation, priority 2008, dated 2014).

How the values were obtained:
Format in all cases: cell-based, human
neutrophils [1] = test: Neutrophil migration assay in chemoattractant gradients (switching gradient device); settings: for average displacement in the direction of the gradient: 20 nM/450 μm fMLP or 10 nM/450 μm IL-8 gradient; for directional bias of migration profile (comparison): comparison between substrates / between chemoattractants; for Random motility coefficient (μ): initial 10 minutes of migration
Experimental: The gradient generating device used to study cell migration consists of two inlets, one outlet, and a cell loading port. In a similar manner as explained above, the device was primed after functionalizing the channel surface with adhesion molecules. Two syringes were prepared, one with only buffer containing 0.2% HSA while the other also containing the appropriate concentration of chemokine. Two chemoattractants, either recombinant human interleukin-8 (IL8, Catalog #208-IL, R&D Systems inc.) or N-formyl-methionyl-leucyl-phenylalanine (fMLP, Part # F3506, Sigma-Aldrich) were employed at 10 nM and 20 nM concentrations. For consistency, the two syringes were connected to the device such that chemokine gradient in the cell capture and migration chambers was always in the same orientation, from top (100%) to bottom (0%). After the device was primed, inlet ports were clamped, and the blood sample was loaded through the cell loading port as described in the following section.
A 1.25 mm lancet (Part #366579, Becton Dickinson) was used to prick a finger of a subject, and 10 μL whole blood was drawn with a pipette. Before withdrawing the blood, 70 μL of HBSS mixed with sodium heparin (Part #367871, Becton Dickinson) was injected into the open end of a loading needle using a pipette. The blood in the pipette was then directly mixed with the heparin solution inside the needle. A slight pressure was gradually applied to the open end of the needle using an index finger to push the blood sample through the tubing until a small drop of fluid appeared on the other end of the tubing. To avoid entrapment of air bubbles while connecting the tubing to the PDMS device, a drop of HBSS was always present in excess at the connecting ports of the device. The loose end of the sample tubing was held with forceps and carefully inserted in the PDMS port. Once a sealed connection was established, pressure was again applied to the loading needle to push samples through the cell capture and migration chamber. The inlet and outlet tubings were then clamped using binder clips for 5-10 minutes allowing cells to interact and bind with the glycoprotein molecules.
For the neutrophil capture characterization experiments, images for 7-10 sections (each 750 μm long, FIG. 2B) were acquired at 2 s interval using time lapse microscopy and at least 10 frames were captured. This was done to make sure that only adherent neutrophils were counted. An inverted Olympus microscope (Model # CKX41) and a CMOS color camera (Pixelink PLA742) were used to capture time lapse images in phase contrast mode. A 10× ocular and 10× objective magnification were used. The neutrophils captured in the chambers were counted manually in 7-10 distinct areas for each concentration. The average number of captured cells was calculated from three repeated experiments for each concentration and CAM. Captured time lapse images were converted to 8 bit and individual cells were tracked using Metamorph imaging software (Ver 4.1, Universal Imaging Corporation). Elapsed time and migration distance from the origin in the Y direction were derived for each cell and average displacements were calculated for the entire cell population in consideration. Migration curves representing the average distance traveled in the direction of increasing chemokine concentration against time were plotted and compared. It is notable that the slope of gradient along the flow path in the cell chamber gradually changes depending on the flow rates and the diffusivities of chemoattractants. Therefore, to maintain consistency, only the first upstream quarter of the cell chamber was considered for microscopic observation where the variations in gradient profile are minimal. […]

neutrophils [2] = test: Further migration analysis on P-selectin functionalized migration chamber with IL-8 gradient
Experimental: The surface of the migration chamber of a device as described herein was functionalized with P-selectin by exposure to a 10 nM solution of P-selectin for 10 minutes, followed by Hanks buffer wash for 5 minutes. Capillary blood was collected from the tip of a finger using a lancet. A volume of 10 μL (equivalent of a small droplet) was collected in 10 μL heparin 2×, mixed well by repeated pipetting, and introduced into the device. After filling the main channel, a slow flow rate of the blood was established by raising the inlet tube at 4-5 cm above the level of the device.
After 5 minutes, the blood inlet was clamped, and buffer was introduced from one of the gradient generators that had Hanks buffer solution at both inlets. After 1 minute of washing all the red blood cells through the device, only leukocytes were left on the P selectin coated surface of the migration chamber. Based on observed morphological characteristics, most of the remaining captured cells appeared to be neutrophils. After 5-10 minutes of washing using a buffer, a gradient of IL-8 (from 0 to 12 nM over 400 μm distance) was rapidly established using the second gradient chamber. […]
The displacement of neutrophils in the direction of the gradient was also measured as a function of time.

neutrophils [3] = test: Neutrophil capture on CAM-coated channels primed with 20 nM fMLP; settings: CAM coated channel primed with 20 nM fMLP
Experimental: To identify whether the chemoattractant exposure has any significant effect on neutrophil capture from whole blood, the CAM coated channel was primed with 20 nM fMLP, and the cells were captured in a similar manner as described above. The effects of chemotactic priming of channels appeared significant from the statistical analysis (P<<0.05).

neutrophils [4] = test: Neutrophil capture from whole blood on CAM-coated microfluidic channels
From the text: Three different adhesion molecules (P-selectin, E-selectin and fibronectin) were used to capture primary neutrophils from whole blood in the microfluidic channels. These substrates were chosen because of their significant role in neutrophil trafficking in vivo. To characterize the neutrophil capture efficiency, the cell capture chambers were coated with the adhesion molecules by flowing through solutions of six different concentrations of each adhesion molecule (concentrations shown in Table 1). Solutions were prepared by diluting the stock solution in sterile water or phosphate buffered saline (PBS) as advised by the vendors. These dilutions were loaded in the six cell capture chambers of the device and incubated for 1 h at room temperature. After one hour, P-selectin was aspirated and the flow chambers perfused with 2% HSA (Human Serum Albumin, Sigma-Aldrich Catalog # A5843) in Hank's buffer saline solution (HBSS, Sigma-Aldrich Catalog # H9269) to block non-specific binding sites and incubated for at least 15 minutes.
The PDMS device used to characterize cell capture consists of six distinct parallel channels each having an inlet and an outlet port (FIG. 2A). The channel dimensions of each segment of the capture device are 750×450×80 μm (L×W×H). The length of each segment was chosen such that it will conveniently fit in the field of view at 10× ocular and 10× objective magnification. 10 μL whole blood was mixed with 70 μL it heparinized HBSS solution and loaded in the cell chamber. Six 1 mL syringes (Part #309602, Becton, Dickinson and Company, Franklin Lakes, N.J.) were filled with HBSS containing 0.2% HSA. Most of the air trapped in the dead volume of the syringe was eliminated by tapping the inverted syringes. Syringes were then connected to tygon tubing approximately 10 to 12 inches long (Part # TGY-010-C, Small parts Inc.) through the needles (Part # NE-301PLC, Small parts Inc.). The syringes were placed on the syringe pump rack (PHD 2000, Harvard Apparatus, Holliston, Mass.), and the loose ends of the tubing were connected to the inlets of the device properly secured on the microscope stage. Smaller fragments of tubing were connected to the outlet ports. The pump was turned on at the rate of 4-5 μL/min, and the outlet tubings were clamped once the channels were filled with fluid, while leaving the pump running. This priming step was necessary to eliminate any trapped air pockets by continuing the inflow that pressurizes the air bubbles to diffuse through the porous PDMS matrix. Blood sample could be loaded as soon as all the air pockets were eliminated.
A 1.25 mm lancet (Part #366579, Becton Dickinson) was used to prick a finger of a subject, and 10 μL whole blood was drawn with a pipette. […]

[5] = 50 μg/mL E-selectin surface, first 30 minutes
[6] = 200 μg/mL fibronectin surface, 30 minutes
[7] = substrate E-selectin, mean of about 15 cells
[8] = substrate Fibronectin, less than 10 cells
[9] = substrate P-selectin, mean of about 15 cells

Molecule | average displacement in the direction of the gradient (neutrophils [1]; [5]) [μm] | average displacement in the direction of the gradient (neutrophils [1]; [6]) | directional bias of migration profile (comparison) (neutrophils [1]) | Random motility coefficient (μ) (neutrophils [1]; [7]) [μm^2/minute] | Random motility coefficient (μ) (neutrophils [1]; [8]) [μm^2/minute] | Random motility coefficient (μ) (neutrophils [1]; [9]) [μm^2/minute] | cells captured on primed vs. unprimed surface (neutrophils [3]) | other results
CSCC[C@H](NC=O)C(=O)N[C@@H](CC(C)C)C(=O)N[C@@H](Cc1ccccc1)C(=O)O [fMLP, N-formyl-methionyl-leucyl-phenylalanine, reference compound] | 50 | about 65 μm | greater directional bias than IL8 | 23.64 | 17.7 | 8.07 | – | –
IL-8: recombinant human interleukin-8, chemoattractant (Catalog #208-IL, R&D Systems) | 70 | 35 μm | – | 33.92 | 27.01 | 14.89 | – | neutrophil migration response to gradient (neutrophils [2]; IL-8 gradient from 0 to 12 nM over 400 μm, P-selectin coated surface): sustained migration in the direction of the gradient
fibronectin | – | – | – | – | – | – | five times more cells | cells captured (neutrophils [4]; coated surfaces at 200 μg/mL concentration of priming solution, whole blood): 3-4 cells/mm^2
E-selectin: Human recombinant E-selectin, cell adhesion molecule used to coat capture surface (R&D Systems ADP1-050) (protein, UniProt P16581 22-610, looked up) E-selectin: WSYNTSTEAMTYDEASAYCQQRYTHLVAIQNKEEIEYLNSILSYSPSYYWIGIRKVNNVWVWVGTQKPLTEEAKNWAPGEPNNRQKDEDCVEIYIKREKDVGMWNDERCSKKKLALCYTAACTNTSCSGHGECVETINNYTCKCDPGFSGLKCEQIVNCTALESPEHGSLVCSHPLGNFSYNSSCSISCDRGYLPSSMETMQCMSSGEWSAPIPACNVVECDAVTNPANGFVECFQNPGSFPWNTTCTFDCEEGFELMGAQSLQCTSSGNWDNEKPTCKAVTCRAVRQPQNGSVRCSHSPAGEFTFKSSCNFTCEEGFMLQGPAQVECTTQGQWTQQIPVCEAFQCTALSNPERGYMNCLPSASGSFRYGSSCEFSCEQGFVLKGSKRLQCGPTGEWDNEKPTCEAVRCDAVHQPPKGLVRCAHSPIGEFTYKSSCAFSCEEGFELHGSTQLECTSQGQWTEEVPSCQVVKCSSLAVPGKINMSCSGEPVFGTVCKFACPEGWTLNGSAARTCGATGHWSGLLPTCEAPTESNIPLVAGLSAAGLSLLTLAPFLLWLRKCLRKAKKFVPASSCQSLESDGSYQKPSYIL | – | – | – | – | – | – | approximately twice as many cells | maximum capture efficiency (neutrophils [4]; surface coated with 50 μg/mL solution, whole blood): ~15 cells/mm^2
P-selectin: Human recombinant P-selectin, cell adhesion molecule used to coat capture surface (R&D Systems ADP3-050) (protein, UniProt P16109 42-830, looked up) P-selectin: WTYHYSTKAYSWNISRKYCQNRYTDLVAIQNKNEIDYLNKVLPYYSSYYWIGIRKNNKTWTWVGTKKALTNEAENWADNEPNNKRNNEDCVEIYIKSPSAPGKWNDEHCLKKKHALCYTASCQDMSCSKQGECLETIGNYTCSCYPGFYGPECEYVRECGELELPQHVLMNCSHPLGNFSFNSQCSFHCTDGYQVNGPSKLECLASGIWTNKPPQCLAAQCPPLKIPERGNMTCLHSAKAFQHQSSCSFSCEEGFALVGPEVVQCTASGVWTAPAPVCKAVQCQHLEAPSEGTMDCVHPLTAFAYGSSCKFECQPGYRVRGLDMLRCIDSGHWSAPLPTCEAISCEPLESPVHGSMDCSPSLRAFQYDTNCSFRCAEGFMLRGADIVRCDNLGQWTAPAPVCQALQCQDLPVPNEARVNCSHPFGAFRYQSVCSFTCNEGLLLVGASVLQCLATGNWNSVPPECQAIPCTPLLSPQNGTMTCVQPLGSSSYKSTCQFICDEGYSLSGPERLDCTRSGRWTDSPPMCEAIKCPELFAPEQGSLDCSDTRGEFNVGSTCHFSCDNGFKLEGPNNVECTTSGRWSATPPTCKGIASLPTPGVQCPALTTPGQGTMYCRHHPGTFGFNTTCYFGCNAGFTLIGDSTLSCRPSGQWTAVTPACRAVKCSELHVNKPIAMNCSNLWGNFSYGSICSFHCLEGQLLNGSAQTACQENGHWSTTVPTCQAGPLTIQEALTYFGGAVASTIGLIMGGTLLALLRKRFRQKDDGKCPLNPHSHLGTYGVFTNAAFDPSP | – | – | more directionally biased and persistent | – | – | – | not significant | chemokinesis of neutrophils on functionalized substrate (neutrophils [2]; in the absence of IL-8): No significant chemokinesis; neutrophil activation by binding to capture surface (morphology) (neutrophils [4]; before chemokine introduced, P-selectin functionalized surface (FIGS. 7A-7C)): did not induce neutrophil activation; maximum capture efficiency (neutrophils [4]; surface coated with 25 μg/mL solution, whole blood): approximately 35 cells/mm^2
